Source: patent US20220323406A1, “METHODS AND COMPOSITIONS FOR DIFFERENTIATING STEM CELLS” (Massachusetts Institute of Technology, priority 2019, published 2022)

Key:
[1] = test system: ENR+CD organoids (ISC to Paneth cell differentiation); experiment: Primary screen: basal (non-stimulated) lysozyme secretion LYZ.NS, 2.5-D 384-well ENR+CD organoid differentiation; assay type: cell-based, mouse; settings: primary screen; for Z.LYZ.NS: standard z score
Text: (§1) High-throughput screening.

[2] = test system: ENR+CD organoids (ISC to Paneth cell differentiation); experiment: Primary screen: CCh-stimulated lysozyme secretion LYZ.S, 2.5-D 384-well ENR+CD organoid differentiation; assay type: cell-based, mouse; settings: primary screen
Text: as §1

ENR+CD organoids = experiment: Primary screen: ATP (CellTiter-Glo 3D, CTG) cell number/viability, 2.5-D 384-well ENR+CD organoids; settings: primary screen;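 further: compounds given at plating and again on day 3 over a 6-day differentiation from ENR+CV stem-cell-enriched precursors, ATP measured on day 6, plate median as control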

Row | SMILES | Dose.FC.LYZ.NS (log2 fold change) ([1]; dose 0.08 uM) | Z.LYZ.NS (standard z score) ([1]; dose 0.08 uM) | Dose.FC.LYZ.NS (log2 fold change) ([1]; dose 0.40 uM) | Z.LYZ.NS (standard z score) ([1]; dose 0.40 uM) | Dose.FC.LYZ.NS (log2 fold change) ([1]; dose 2.00 uM) | Z.LYZ.NS (standard z score) ([1]; dose 2.00 uM) | Dose.FC.LYZ.NS (log2 fold change) ([1]; dose 10.00 uM) | Z.LYZ.NS (standard z score) ([1]; dose 10.00 uM) | Dose.FC.LYZ.S (log2 fold change) ([2]; dose 0.08 uM) | Dose.FC.LYZ.S (log2 fold change) ([2]; dose 0.40 uM) | Dose.FC.LYZ.S (log2 fold change) ([2]; dose 2.00 uM) | Dose.FC.LYZ.S (log2 fold change) ([2]; dose 10.00 uM) | Dose.FC.CTG (log2 fold change) (ENR+CD organoids; dose 0.08 uM) | Dose.FC.CTG (log2 fold change) (ENR+CD organoids; dose 0.40 uM) | Dose.FC.CTG (log2 fold change) (ENR+CD organoids; dose 2.00 uM) | Dose.FC.CTG (log2 fold change) (ENR+CD organoids; dose 10.00 uM) | Dose.FC.LYZ.NS ([1]; dose 0.08 uM) [log2 fold change] | Dose.FC.LYZ.NS ([1]; dose 0.40 uM) [log2 fold change] | Dose.FC.LYZ.NS ([1]; dose 2.00 uM) [log2 fold change] | Dose.FC.LYZ.NS ([1]; dose 10.00 uM) [log2 fold change] | also measured
1 | CC#CCn1c(N2CCC[C@@H](N)C2)nc2c1c(=O)n(Cc1nc(C)c3ccccc3n1)c(=O)n2C [Linagliptin] | 0.208 | 1.809 | 0.055 | 0.478 | 0.021 | 0.182 | 0.080 | 0.695 | 0.140 | 0.047 | −0.032 | 0.050 | 0.163 | 0.209 | 0.023 | −0.011 | – | – | – | – | –
2 | Cc1cc([C@@H](C)Nc2ccccc2C(=O)O)c2nc(N3CCOCC3)cc(=O)n2c1 [AZD6482] | – | 0.944 | – | 0.660 | – | −1.129 | – | −2.160 | – | – | – | – | – | – | – | – | 0.108 | 0.076 | −0.130 | −0.248 | Dose.FC.LYZ.S ([2]; dose 0.08 uM): 0.182 log2 fold change; Dose.FC.LYZ.S ([2]; dose 0.40 uM): 0.156 log2 fold change; Dose.FC.LYZ.S ([2]; dose 2.00 uM): −0.114 log2 fold change; Dose.FC.LYZ.S ([2]; dose 10.00 uM): −0.253 log2 fold change; Dose.FC.CTG (ENR+CD organoids; dose 0.08 uM): 0.240 log2 fold change; Z.CTG (standard z score) (ENR+CD organoids; dose 0.08 uM): 0.572; Dose.FC.CTG (ENR+CD organoids; dose 0.40 uM): 0.223 log2 fold change; Z.CTG (standard z score) (ENR+CD organoids; dose 0.40 uM): 0.533; Dose.FC.CTG (ENR+CD organoids; dose 2.00 uM): −0.509 log2 fold change; Z.CTG (standard z score) (ENR+CD organoids; dose 2.00 uM): −1.215; Dose.FC.CTG (ENR+CD organoids; dose 10.00 uM): −1.203 log2 fold change; Z.CTG (standard z score) (ENR+CD organoids; dose 10.00 uM): −2.874
3 | Nc1nc(OCc2cc(Br)cs2)c2[nH]cnc2n1 [Lomeguatrib] | −0.050 | −0.437 | −0.019 | −0.161 | −0.022 | −0.193 | −0.104 | −0.908 | −0.082 | −0.022 | −0.055 | −0.138 | −0.426 | −0.309 | 0.075 | −0.080 | – | – | – | – | –
4 | COCCOc1ccc2c(c1)ncn2-c1ccc2cccc(N3CCC(N)CC3)c2n1 [CP-673451] | – | – | – | – | – | – | – | – | – | – | – | – | – | – | – | – | 0.031 | 0.066 | 0.102 | −0.058 | Z.LYZ.NS ([1]; dose 0.08 uM): 0.274; Z.LYZ.NS ([1]; dose 0.40 uM): 0.577; Z.LYZ.NS ([1]; dose 2.00 uM): 0.886; Z.LYZ.NS ([1]; dose 10.00 uM): −0.508; Dose.FC.LYZ.S ([2]; dose 0.08 uM): 0.096 log2 fold change; Dose.FC.LYZ.S ([2]; dose 0.40 uM): −0.046 log2 fold change; Dose.FC.LYZ.S ([2]; dose 2.00 uM): 0.080 log2 fold change; Dose.FC.LYZ.S ([2]; dose 10.00 uM): −0.147 log2 fold change; Dose.FC.CTG (ENR+CD organoids; dose 0.08 uM): 0.069 log2 fold change; Dose.FC.CTG (ENR+CD organoids; dose 0.40 uM): 0.186 log2 fold change; Dose.FC.CTG (ENR+CD organoids; dose 2.00 uM): 0.008 log2 fold change; Dose.FC.CTG (ENR+CD organoids; dose 10.00 uM): −0.258 log2 fold change
5 | O=C1[C@H](Cc2ccc(O)cc2)N2C(=O)CCN(C(=O)NCc3ccccc3)[C@H]2CN1Cc1cccc2ccccc12 [ICG-001] | 0.037 | 0.324 | 0.037 | 0.321 | 0.045 | 0.396 | −0.125 | −1.093 | 0.163 | 0.204 | 0.017 | −0.124 | 0.104 | 0.104 | 0.143 | −0.416 | – | – | – | – | Z.CTG (standard z score) (ENR+CD organoids; dose 0.08 uM): 0.249; Z.CTG (standard z score) (ENR+CD organoids; dose 0.40 uM): 0.248; Z.CTG (standard z score) (ENR+CD organoids; dose 2.00 uM): 0.343; Z.CTG (standard z score) (ENR+CD organoids; dose 10.00 uM): −0.993
6 | COc1cc2/c(=N/c3ccc(Br)cc3F)nc[nH]c2cc1OCC1CCN(C)CC1 [Vandetanib (ZD6474)] | – | −0.594 | – | −0.792 | – | −2.356 | – | −2.594 | – | – | – | – | – | – | – | – | −0.068 | −0.091 | −0.271 | −0.298 | Dose.FC.LYZ.S ([2]; dose 0.08 uM): −0.139 log2 fold change; Dose.FC.LYZ.S ([2]; dose 0.40 uM): −0.054 log2 fold change; Dose.FC.LYZ.S ([2]; dose 2.00 uM): −0.384 log2 fold change; Dose.FC.LYZ.S ([2]; dose 10.00 uM): −0.494 log2 fold change; Dose.FC.CTG (ENR+CD organoids; dose 0.08 uM): −0.648 log2 fold change; Z.CTG (standard z score) (ENR+CD organoids; dose 0.08 uM): −1.547; Dose.FC.CTG (ENR+CD organoids; dose 0.40 uM): −0.366 log2 fold change; Z.CTG (standard z score) (ENR+CD organoids; dose 0.40 uM): −0.874; Dose.FC.CTG (ENR+CD organoids; dose 2.00 uM): −0.874 log2 fold change; Z.CTG (standard z score) (ENR+CD organoids; dose 2.00 uM): −2.089; Dose.FC.CTG (ENR+CD organoids; dose 10.00 uM): −1.206 log2 fold change; Z.CTG (standard z score) (ENR+CD organoids; dose 10.00 uM): −2.880
7 | CCOC(=O)C1=C(COCCN)NC(C)=C(C(=O)OC)C1c1ccccc1Cl (stereo not drawn) [Amlodipine] | – | 0.228 | – | 0.210 | – | −0.568 | – | −1.172 | – | – | – | – | – | – | – | – | 0.026 | 0.024 | −0.065 | −0.135 | Dose.FC.LYZ.S ([2]; dose 0.08 uM): −0.042 log2 fold change; Dose.FC.LYZ.S ([2]; dose 0.40 uM): −0.015 log2 fold change; Dose.FC.LYZ.S ([2]; dose 2.00 uM): −0.122 log2 fold change; Dose.FC.LYZ.S ([2]; dose 10.00 uM): −0.155 log2 fold change; Dose.FC.CTG (ENR+CD organoids; dose 0.08 uM): −0.351 log2 fold change; Dose.FC.CTG (ENR+CD organoids; dose 0.40 uM): −0.363 log2 fold change; Dose.FC.CTG (ENR+CD organoids; dose 2.00 uM): −0.372 log2 fold change; Dose.FC.CTG (ENR+CD organoids; dose 10.00 uM): −0.421 log2 fold change
8 | c1cc(-c2cnn3cc(-c4ccc(N5CCNCC5)cc4)cnc23)c2cccnc2c1 [LDN-212854] | 0.095 | 0.823 | 0.051 | 0.446 | −0.217 | −1.885 | −0.273 | −2.375 | 0.162 | 0.026 | −0.292 | −0.399 | 0.238 | 0.129 | −0.475 | −1.263 | – | – | – | – | Z.CTG (standard z score) (ENR+CD organoids; dose 0.08 uM): 0.568; Z.CTG (standard z score) (ENR+CD organoids; dose 0.40 uM): 0.309; Z.CTG (standard z score) (ENR+CD organoids; dose 2.00 uM): −1.134; Z.CTG (standard z score) (ENR+CD organoids; dose 10.00 uM): −3.018
